Laboratory results reported in patent publication US10729633B2, “Methods for boosting UVA photo-protection using antioxidants” (L'OREAL, priority 2018, dated 2020).

Assays:
[1] = Oxygen Radical Absorbance Capacity (ORAC) assay; type: biochemical; conditions: in tubo, Trolox standard
Procedure: (§1) In tubo antioxidant testing was carried out to determine the antioxidant profile of antioxidants that boost UVA photo-protection.
The Oxygen Radical Absorbance Capacity (ORAC) assay is one of most commonly used methods to evaluate the capacity of antioxidants against ROS (reactive oxygen species), specific for peroxyl which is one of the most important free radicals present in the human skin environment. The ORAC assay measures the oxidative degradation of the fluorescent probe (fluorescein) after being mixed with free radical generators such as azo-initiator compounds (2,2′-Azobis(2-amidinopropane) dihydrochloride, AAPH). Azo-initiators produce the peroxyl radical by heating, which damages the fluorescent molecule, resulting in the loss of fluorescence. Antioxidants protect the fluorescent molecule from the oxidative degeneration. By quantifying the decay of fluorescence using a fluorometer, the degree of protection is determined comparing with a standard control antioxidant Trolox. The result is expressed in mol equivalent of Trolox per gram of sample (i.e., μmol TE/g). Equipment that can automatically measure and calculate the capacity is commercially available, such as the VarioSkan flash microplate reader from Thermo Scientific. To test samples for ORAC, compounds are dissolved into water-based NaH2PO4 buffer.

[2] = In vivo PPD: UVPPD PF according to ISO 24442; conditions: conclusion in words from PPD data of Examples 2 and 3
Procedure: To characterize protection from UVA radiation, the PPD (Persistent Pigment Darkening) method, which measures the color of the skin observed 2 to 4 hours after exposure of the skin to UVA radiation, is used. This method was adopted in 1996 by the Japanese Cosmetic Industry Association (JCIA) as the official test procedure for the UVA labelling of products and is commonly used in industry, especially in Europe and the United States. See JAPAN COSMETIC […] ASSOCIATION TECHNICAL BULLETIN, Measurement Standards for UVA Protection Efficacy. Issued Nov. 21, 1995 and effective of Jan. 1, 1996), which is incorporated herein by reference in its entirety. […]
The degree of UVA protection provided by each of the formulations was determined in terms of UVPPD PF. […]
The UVPPD PF for each of sunscreen formulations A, B, and C was determined according to ISO 24442, which was adopted by the Japan Cosmetic Industry Association in 2012 for characterization of UVA protection and is incorporated herein by reference in its entirety. […] UVA radiation can be monitored continuously during exposure using a Model DCS-1 Sunburn UV Meter/Dose Controller System (Solar Light Co.), formerly known as the Robertson-Berger Sunburn meter (R-B meter). […] The MPPD of unprotected skin is determined under standardized lighting conditions 2 to 4 hours after exposures. […]

[3] = Superoxide Radical Absorbance Capacity (SORAC) assay; type: biochemical; parameters: key: None: No detectable value; conditions: in tubo, WST-1 probe
Procedure: as §1
The Superoxide Radical Absorbance Capacity (SORAC) assay is an in tubo method to determine the relative capacity of an antioxidant to dismutate the superoxide anion. The Varioskan Flash is employed to measure the superoxide dismutase-catalyzed dismutation of the superoxide anion in the presence of the absorbance probe, water-soluble tetrazolium salt (WST-1). WST-Formazan is produced when WST-1 is […] by superoxide anion that is generated by the mixture of xanthine and xanthine oxidase. One unit of SOD activity is defined as the quantity of antioxidant to obtain 50% inhibition of the rate of reduction of WST-1. The final SORAC value is expressed as one unit of SOD activity per milligram of dry weight of antioxidant material at 50% inhibition (Unit/mg).

[4] = Hydroxyl Radical Absorbance Capacity (HORAC) assay; type: biochemical; conditions: in tubo, Gallic Acid standard
Procedure: as §1
The HORAC assay is another common method to examine antioxidant activity. It is specific for hydroxyl radicals. The Varioskan Flash is employed for the quantification of the capacity of an antioxidant to avert the hydroxyl radical. The hydroxyl radical, generated from hydrogen peroxide and Cobalt (II) fluoride, will quench a fluorescent probe by a hydrogen atom transfer reaction. In the presence of an antioxidant, however, the molecule will chelate the Co(II), preventing the generation of the hydroxyl radical and initially block or prevent the quenching of the probe, causing a delay in the fluorescence decay profile. The area under the fluorescence decay curves for samples with and without the presence of an antioxidant molecule are compared to that of a standard reference material and the hydroxyl radical averting capacity is determined. By quantifying the decay of fluorescence using a fluorometer, the degree of protection is determined by comparison with a standard control antioxidant Gallic Acid (standard reference material). The result is expressed in μmol equivalent of Gallic Acid per gram of sample (i.e., μmol GAE/g). Equipment that can automatically measure and calculate the capacity is commercially available, such as the VarioSkan flash microplate reader from Thermo Scientific. To test samples by using HORAC, compounds are dissolved into water-based NaH2PO4 buffer.

| SMILES | ORAC-peroxyl [1] | boosting effect on UVA photo-protection [2] | SORAC-superoxide [3] | HORAC-hydroxyl [4] |
| --- | --- | --- | --- | --- |
| O=C(O)[C@H]1O[C@@H](Oc2cc3oc(-c4ccccc4)cc(=O)c3c(O)c2O)[C@H](O)[C@@H](O)[C@@H]1O [Baicalin, reference compound] | Medium (4500-10000) | did not boost UVA photo-protection | Medium (200-1000) | Weak (<2600) |
| COc1cc(/C=C/C(=O)O)ccc1O [Ferulic acid] | Strong (>10000) |  | Weak (<200) | Strong (>10000) |
| O=C(CCc1ccc(O)cc1)c1c(O)cc(O)cc1O [Phloretin] | Strong (>10000) |  | None | Medium (2600-10000) |
| OC[C@H]1O[C@@H](Oc2cc(O)cc(/C=C/c3ccc(O)cc3)c2)[C@H](O)[C@@H](O)[C@@H]1O [Polydatin] | Strong (>10000) |  | None | Strong (>10000) |
